For data set [1] the following is noted: after IV or inhalation administration; cited from earlier work.
For data set [2] the following is noted: human, in vivo. The procedure:
Thus the flow-controlled, slow inhalation at about 200 ml/sec enables maximum drug deposition in the target area of small airways. As further seen in FIG. 12, such inhalation method leads to an alveolar drug deposition of 40 to 50%. In contrast, alveolar deposition is below 10% when using a high inspiratory flow rate of 1000 ml/sec and a small inhalation volume of 350 ml, and it is 20-30% when using an inspiratory flow rate of 1000 ml/sec and an inhalation volume of 1800 ml. It is thus preferred to combine the controlled, slow flow rate of e.g. 200 ml/sec with higher inhalation volumes. As mentioned above, said inhalation volumes depend on the individual patient's lung function and the severity grade of the pulmonary disease, but in cooperation between physician and patient, a volume as high as is well tolerable for the patient can be chosen (see also Table 7).

A short description of data set [3]: Clinical trial: budesonide serum concentration analysis. The format is in vivo, human. The note with it: baseline to week 18; roughly 12 hours dosing interval. The procedure:
For budesonide serum concentration analysis, blood was drawn in all four investigated groups either before inhalation or 30-60 minutes following inhalation at baseline (post-inhalation) and at week 18 (pre- and post-inhalation). Results are seen in FIG. 10.

Data set [4] deals with oral steroid-dependent asthma subjects. As to conditions: nominal 4-8 mg daily, conventional nebulizer; cited from earlier work.
For data set [5], the system named is patients with chronic oral dependent asthma. As to conditions: cited from earlier work.
Data set [6] concerns patients with severe chronic asthma. As to conditions: 500 or 1000 μg twice daily; cited from earlier work.
Data set [7] concerns asthma patients. As to conditions: cited from earlier work.
The test system of data set [8] is chronic asthma. As to conditions: at half the daily dose of beclomethasone or budenoside; cited from earlier work.
Data set [9] deals with children with acute exacerbated asthma. The note with it: nebulized; cited from earlier work.
For data set [10], the system named is asthmatic children. The note with it: 50 or 100 μg twice a day via dry powder inhaler; cited from earlier work.
Data set [11] relates to asthma in adults and children. As to conditions: 2000 μg once a day, AKITA protocol; cited from earlier work.
Data set [12] concerns healthy volunteers. As to conditions: inhalation; cited from earlier work.

Each structure is given as a SMILES string.

As for `CCCC1O[C@@H]2C[C@H]3[C@@H]4CCC5=CC(=O)C=C[C@]5(C)[C@H]4[C@@H](O)C[C@]3(C)[C@]2(C(=O)CO)O1` (stereo partly drawn) [budesonide], the elimination half-life in data set [1] was 2.2 to 4.5 h. Besides, the alveolar drug deposition in data set [2] is 40-50%. The “accumulation of budesonide in serum” value in data set [3] was “did not accumulate in serum”. Further, in data set [4], the “subjects with side effects like oral thrush or disturbing sore throat” value is on record as 11%.
As to `CCC(=O)O[C@]1(C(=O)SCF)[C@H](C)C[C@H]2[C@@H]3C[C@H](F)C4=CC(=O)C=C[C@]4(C)[C@@]3(F)[C@@H](O)C[C@@]21C` [fluticasone propionate], the “patients who discontinued the treatment” value in data set [5] (4000 μg/day nebulized) is 37%. Besides, the “reduction in the need for orally administered prednisone, 4000 μg versus 1000 μg per day” value in [5] (nebulized, bid) is “significantly greater”. For the same molecule, in [6], the adverse effects result is listed as “topical adverse effects associated with inhaled corticosteroids were observed” and the oral corticosteroid-sparing effect entry is listed as “eliminated a need for oral prednisone”. The “reduction of need for oral prednisolone” value in data set [7] (2000 μg per day versus 1500 or 1000 μg/day) is on record as “more likely to reduce a need for oral prednisolone”. Further, in data set [7] (higher doses), the “hoarseness and oral candidiasis” value is “significantly greater”. In addition, in data set [8], the adverse side effects result was “higher risk of pharyngitis and other adverse side effects”; the “effect on FEV1” value was “improvement of forced expiratory volume in the first second (FEV1)”. For the same molecule, the “efficacy compared to oral prednisolone” value in data set [9] is “at least as effective as oral prednisolone”. Moreover, the “patients reporting adverse effects” value in data set [10] was 51%. Besides, in [11], the FEV1 improvement is recorded as 17.1%, the “amount of administered dose that reached the central portion of the lungs (estimated)” value was 500 to 700 µg and the “reduction in oral steroid use” value is listed as 33.2%. For the same molecule, in data set [12], the “relative lung dose, large volume (750 ml) spacer versus nebulizer” value is listed as “sevenfold”.

These data come from US8834848B2, “Flow and volume regulated inhalation for treatment of severe oral corticosteroid-dependent asthma” (Activaero GmbH Research & Development, priority 2009, dated 2014).
